Source: article PMC8370991, “Structural basis for the inhibition of HTLV-1 integration inferred from cryo-EM deltaretroviral intasome structures” (Nature Communications, 2021)
Where two headings read alike, the source gives them in different places.

Experiments:
HIV-1 = HIV-1 infection model; supplementary ref 18; read-out: HIV-1 EC50 ± stdev; cited from earlier work
HTLV-1 [1] = settings: cited from earlier work
HTLV-1 [2] = experiment: MT-2-Jurkat cell-to-cell HTLV-1 infection, proviral load by qPCR; format: cell-based; settings: HTLV-1 infection of Jurkat T cells
Experimental: Six of the most promising compounds were selected for assessment of their efficacy in inhibiting HTLV-1 viral infection. To this end, we employed an MT-2-Jurkat co-culture relying on cell-to-cell-based HTLV-1 transmission, which we successfully used in a previous study. In this assay format, the infection of Jurkat cells is measured via real-time quantitative PCR (qPCR) determination of the proviral load (PVL). […] A block in the integration reaction was confirmed by Alu-qPCR experiments (Supplementary Fig. 6). […] We suspect this is owing to a more efficient uptake of BIC than RAL by Jurkat T cells.
MT-2 and E6.1 Jurkat T-cell lines (ATCC) were used for the experiments. The cells were cultured at 37 °C with 5% CO2 and maintained in Roswell Park Memorial Institute (RPMI) media supplemented with 10% fetal bovine serum (FBS), 100 U penicillin, 100 μg/mL streptomycin and 0.25 μg/mL fungizone.
The HTLV-1 cell-to-cell infection was performed as previously described; Jurkat T cells were counted and diluted in complete RPMI to a final concentration of 0.25 × 10^6 cells/ml and pre-treated with INSTI drugs (final concentration ranging from 0.2 pM to 2 μM) or DMSO as a control for 24 h. MT-2 cells were resuspended in RPMI at a concentration of 2 × 10^6 cells/ml and subjected to a nonlethal γ-radiation dose of 400 Gy. Cells were resuspended at a concentration of 2 × 10^6 cells/ml in serum-free RPMI supplemented with the corresponding INSTI drug. Co-culture of 0.5 × 10^6 for each cell line was carried out for 16 h, after which cells were washed in PBS and resuspended in 1 ml of depletion buffer (PBS, 0.1% FBS and 2 mM EGTA). MT-2 cells were depleted from the culture by means of anti-CD25 magnetic beads (DynabeadsTM CD25, Thermo Fisher). Depletion efficiency was confirmed via flow cytometry as described previously. Jurkat cells were cultured for 2 weeks in complete RPMI supplemented with the drugs and genomic DNA was extracted (DNeasy kit, Qiagen) and stored at −20 °C for subsequent analysis. All the experiments were done in triplicate.
The PVL was measured as previously described[9],[53],[54]. Jurkat genomic DNA was quantified and diluted to a concentration of 5 ng/μL. Real-time qPCR analysis were conducted on 20 ng of gDNA to measure the level of HTLV-1 tax and gapdh genes (Supplementary Table 5). For the standard curve, the gDNA from an HTLV-1 naturally infected T-cell clone (clone 11.50, courtesy of professor Charles Bangham), which has one copy of tax and two of gapdh, was used. The integrated provirus copy number was calculated as follows: (tax copy numbers)/(2×gapdh copy number)[53], and normalised to the DMSO-treated control which was set to 100%. The PVL data were fitted to a dose–response curve in Prism 7 and the EC50 was calculated. Alu-PCR was performed as previously described in ref. [55]. In brief, the first PCR reaction was done with Phusion polymerase starting from 80 ng of gDNA using the ALU-specific primers (Alu-F/Gag-R). The nested PCR was run diluting the amplificated product 1:50. The reaction was done as a qPCR using Gag-specific primers (Gag-R/Gag-F) and the Luna SYBR dye reaction mix (New England Biolabs). The integrated provirus copy numbers were normalised to GAPDH and Jurkat cells treated with DMSO and infected with HTLV-1 were set to 100%. Experiments were done in triplicate.

recombinant HTLV-1 IN = target: T1, recombinant HTLV-1 IN (Human T-cell leukemia virus 1, UniProt P03362); settings: previously obtained values, read-out: HTLV-1 IN strand transfer IC50, cited from earlier work
T1 construct: made in house

STLV-1 intasome = experiment: EMSA of stability (retention) of assembled STLV-1 intasome; settings: three hours of incubation with the drug
Experimental: The donor DNA (vDNA) that mimics the 3′-processed LTR of STLV-1 DNA was preassembled by annealing Atto-680-labelled MarB43_U5_S30UP and MarB43_U5_S30B oligonucleotides (Supplementary Table 4) in 100 mM Tris pH 7.4, 400 mM NaCl. In all, 16 μg of STLV-1 IN or its mutants were co-incubated with 38.4 μg of LEDGF/ΔIBD-B56γ at 4 °C for 30 min to allow binding. Samples were then supplemented with 0.5 μL 20 μM Atto680-labelled vDNA, and sufficiently diluted to give a final NaCl concentration of 60 mM. This was immediately placed in a 37 °C heating block for 10 min. The sample was then returned to room temperature (RT) and any precipitate was resolubilised by the addition of NaCl to a final concentration of 1.2 M. After equilibration of the samples at RT for 10 min, the samples were either immediately supplemented with 10 μg/mL heparin or, where stated, were incubated further or additional reagents/INSTIs were added, as described. Samples, supplemented with 10 μg/mL heparin, devoid of loading dye were carefully loaded onto a 3% low melting point agarose gel containing 10 μg/mL heparin and electrophoresed, avoiding overheating. Densitometry analysis was carried out in ImageJ v1.50i. Measurements from at least three independent experiments were taken. Standard deviations and p values were calculated in Prism 9.
Supplementary Figure 10 | STLV-1 IN A219E binds more B56g and stabilises the deltaretroviral intasome. a, Pulldown of LEDGF/ΔIBD-B56γ by wild type His6-STLV-1 IN and its mutants. Mutations introduced in the IN:B56 binding interface can strengthen the interaction. b, A219E-mutated STLV-1 IN increases the amount of intasome assembled in vitro in an EMSA assay, compared to wild type IN. Values are normalised to wild type STLV-1 IN. c, EMSA study of the effect of addition of BIC on the stability (retention) of the assembled STLV-1 intasome after three hours of incubation with the drug. Values shown represent percentage of intasome retained as compared to intasome assayed by EMSA straight after assembly. Averages and standard deviations are shown for two independent biological replicates. Primary data from pull-down assays and EMSA is also included below each panel. The red arrow indicates the intasome band. INSTI, integrase strand transfer inhibitor. Source data are provided as a Source Data File.
(1 picture or pasted object on this page, not shown here)

[3] = target: STLV-1 IN(A219E) as assembled into the intasome for cryo-EM (simian T-cell lymphotropic virus type 1 (STLV-1), isolate MarB43); experiment: cryo-EM structure
[4] = target: 6xHis-tagged STLV-1 MarB43 integrase A219E (simian T-cell lymphotropic virus type 1 (STLV-1), isolate MarB43); experiment: pull-down

## O=C(NCc1c(F)cc(F)cc1F)c1cn2c(c(O)c1=O)C(=O)N1[C@H]3CC[C@H](C3)O[C@@H]1C2 [Bictegravir]
HIV-1
  EC50: 1.6 ± 0.4 nM
HTLV-1 [1]; MT-2-Jurkat cell-to-cell infection, read-out: HTLV-1 EC50
  EC50: 0.3 ± 0.173 nM
HTLV-1 [1]; Replicate 1, previously reported values, read-out: HTLV-1 infection EC50
  EC50: 0.54 nM
HTLV-1 [1]; Replicate 2, previously reported values, read-out: HTLV-1 infection EC50
  EC50: 0.44 nM
HTLV-1 [2]
  improvement in EC50 compared with RAL: 20 fold
Recombinant HTLV-1 IN; Replicate 1
  IC50: 163 nM
Recombinant HTLV-1 IN; Replicate 2
  IC50: 136 nM
Recombinant HTLV-1 IN; Replicate 3
  IC50: 212 nM
STLV-1 intasome; 1 uM, Replicate 1
  percentage of intasome retained: 54.7791%
STLV-1 intasome; 1 uM, Replicate 2
  percentage of intasome retained: 56.5068%
STLV-1 intasome; 50 uM, Replicate 1
  percentage of intasome retained: 73.5691%
STLV-1 intasome; 50 uM, Replicate 2
  percentage of intasome retained: 117.429%
STLV-1 intasome; 50 uM, Replicate 3
  percentage of intasome retained: 83.837%

## STLV-1 IN(A219E) as assembled into the intasome for cryo-EM (enzyme)
[3]
  stoichiometry N: 4

## LEDGF/ΔIBD-B56γ (from UniProt Q13362 11-380)
[4]
  fold B56γ recovered against WT IN: 2 fold
